The source made the active and inactive calls. The calls are words filed in the database; no cut-off is given here.
What was measured:
[1] = system: Staphylococcus cohnii; assay: Antibacterial activity against Staphylococcus cohnii at 6.25 to 200 ug/ml after 24 hrs by microwell dilution assay; assay type: functional, organism-based
[2] = system: Escherichia coli; assay: Antibacterial activity against Escherichia coli at 6.25 to 200 ug/ml after 24 hrs by microwell dilution method; assay type: functional, organism-based
[3] = system: Nakaseomyces glabratus; assay: Antifungal activity against Candida glabrata at 10 mg/ml after 48 hrs by disc diffusion method; assay type: functional, organism-based
[4] = system: Schwanniomyces occidentalis; assay: Antifungal activity against Schwanniomyces occidentalis at 10 mg/ml after 48 hrs by disc diffusion method; assay type: functional, organism-based
[5] = system: Staphylococcus aureus; assay: Antibacterial activity against Staphylococcus aureus at 10 mg/ml after 24 hrs by disc diffusion method; assay type: functional
[6] = system: Escherichia coli; assay: Antibacterial activity against Escherichia coli at 10 mg/ml after 24 hrs by disc diffusion method; assay type: functional, organism-based
[7] = system: Micrococcus luteus; assay: Antibacterial activity against Micrococcus luteus at 10 mg/ml after 24 hrs by disc diffusion method; assay type: functional, organism-based
[8] = system: Pichia membranifaciens; assay: Antifungal activity against Pichia membranifaciens at 10 mg/ml after 48 hrs by disc diffusion method; assay type: functional, organism-based
[9] = system: Proteus vulgaris; assay: Antibacterial activity against Proteus vulgaris at 10 mg/ml after 24 hrs by disc diffusion method; assay type: functional, organism-based
[10] = system: Aspergillus; assay: Antifungal activity against Aspergillus at 10 mg/ml after 72 hrs by disc diffusion method; assay type: functional, organism-based
[11] = system: Salmonella paratyphi; assay: Antibacterial activity against Salmonella paratyphi at 6.25 to 200 ug/ml after 24 hrs by microwell dilution method; assay type: functional, organism-based; details: Salmonella enterica subsp. enterica serovar Paratyphi A
[12] = system: Pseudomonas aeruginosa; assay: Antibacterial activity against Pseudomonas aeruginosa at 6.25 to 200 ug/ml after 24 hrs by microwell dilution method; assay type: functional, organism-based
[13] = system: Hepacivirus hominis; assay: Inhibition of HCV N-terminal His-tagged NS5B RNA dependent RNA polymerase expressed in Escherichia coli DH5alpha using poly rA/U12 as primer at 200 uM after 60 mins by liquid scintillation counting
[14] = system: Salmonella paratyphi; assay: Antibacterial activity against Salmonella paratyphi at 10 mg/ml after 24 hrs by disc diffusion method; assay type: functional, organism-based; details: Salmonella enterica subsp. enterica serovar Paratyphi A
[15] = system: Micrococcus lylae; assay: Antibacterial activity against Micrococcus lylae at 6.25 to 200 ug/ml after 24 hrs by microwell dilution method; assay type: functional, organism-based
[16] = system: Klebsiella aerogenes; assay: Antibacterial activity against Enterobacter aerogenes at 10 mg/ml after 24 hrs by disc diffusion method; assay type: functional, organism-based
[17] = system: Staphylococcus cohnii; assay: Antibacterial activity against Staphylococcus cohnii at 10 mg/ml after 24 hrs by disc diffusion method; assay type: functional
[18] = system: Candida parapsilosis; assay: Antifungal activity against Candida parapsilosis at 10 mg/ml after 48 hrs by disc diffusion method; assay type: functional, organism-based
[19] = system: Micrococcus luteus; assay: Antibacterial activity against Micrococcus luteus at 6.25 to 200 ug/ml after 24 hrs by microwell dilution method; assay type: functional, organism-based
[20] = system: Klebsiella aerogenes; assay: Antibacterial activity against Enterobacter aerogenes at 6.25 to 200 ug/ml after 24 hrs by microwell dilution method; assay type: functional, organism-based
[21] = system: Micrococcus lylae; assay: Antibacterial activity against Micrococcus lylae at 10 mg/ml after 24 hrs by disc diffusion method; assay type: functional, organism-based
[22] = system: Acinetobacter radioresistens; assay: Antibacterial activity against Acinetobacter radioresistens at 6.25 to 200 ug/ml after 24 hrs by microwell dilution method; assay type: functional, organism-based
[23] = system: Proteus vulgaris; assay: Antibacterial activity against Proteus vulgaris at 6.25 to 200 ug/ml after 24 hrs by microwell dilution method; assay type: functional, organism-based
[24] = system: Photorhabdus luminescens; assay: Antibacterial activity against Photorhabdus luminescens at 6.25 to 200 ug/ml after 24 hrs by microwell dilution method; assay type: functional, organism-based
[25] = system: Pseudomonas aeruginosa; assay: Antibacterial activity against Pseudomonas aeruginosa at 10 mg/ml after 24 hrs by disc diffusion method; assay type: functional, organism-based
[26] = system: Kluyveromyces marxianus; assay: Antifungal activity against Kluyveromyces marxianus at 10 mg/ml after 48 hrs by disc diffusion method; assay type: functional, organism-based
[27] = system: Candida tropicalis; assay: Antifungal activity against Candida tropicalis at 10 mg/ml after 48 hrs by disc diffusion method; assay type: functional, organism-based
[28] = system: Staphylococcus aureus; assay: Antibacterial activity against Staphylococcus aureus at 6.25 to 200 ug/ml after 24 hrs by microwell dilution assay; assay type: functional, organism-based
[29] = system: Acinetobacter radioresistens; assay: Antibacterial activity against Acinetobacter radioresistens at 10 mg/ml after 24 hrs by disc diffusion method; assay type: functional, organism-based
[30] = system: Photorhabdus luminescens; assay: Antibacterial activity against Photorhabdus luminescens at 10 mg/ml after 24 hrs by disc diffusion method; assay type: functional, organism-based
[31] = system: Candida albicans; assay: Antifungal activity against Candida albicans at 10 mg/ml after 48 hrs by disc diffusion method; assay type: functional, organism-based

Row | SMILES | Activity [1] | Activity [2] | Activity [3] | Activity [4] | Activity [5] | Activity [6] | Activity [7] | Activity [8] | Activity [9] | Activity [10] | Activity [11] | Activity [12] | inhibition [13] [%] | Activity [14] | Activity [15] | Activity [16] | Activity [17] | Activity [18] | Activity [19] | Activity [20] | further results
1 | CC(C(=O)N/N=C/c1ccc(F)cc1)c1ccc(-c2ccccc2)c(F)c1 (configuration not stated) | inactive | inactive | inactive | inactive | inactive | inactive | inactive | inactive | inactive | inactive | inactive | inactive | 8 | inactive | inactive | inactive | inactive | inactive | inactive | inactive | Activity [21]: inactive; Activity [22]: inactive; Activity [23]: inactive; Activity [24]: inactive; Activity [25]: inactive; Activity [26]: inactive; Activity [27]: inactive; Activity [28]: inactive; Activity [29]: inactive; Activity [30]: inactive; Activity [31]: inactive
2 | CC(C(=O)NNC(=S)NCc1ccccc1)c1ccc(-c2ccccc2)c(F)c1 (configuration not stated) | inactive | inactive | inactive | inactive | inactive | inactive | inactive | inactive | inactive | inactive | inactive | inactive | 8 | inactive | inactive | inactive | inactive | inactive | inactive | inactive | Activity [21]: inactive; Activity [22]: inactive; Activity [23]: inactive; Activity [24]: inactive; Activity [25]: inactive; Activity [26]: inactive; Activity [27]: inactive; Activity [28]: inactive; Activity [29]: inactive; Activity [30]: inactive; Activity [31]: inactive
